The numbers were not newly measured in patent US20210290548A1, “FORMULATIONS OF RALTEGRAVIR” (Merck Sharp & Dohme Corp., priority 2018, published 2021), which cites them from elsewhere.

Where two headings read alike, the source gives them in different places.

Take `Cc1nnc(C(=O)NC(C)(C)c2nc(C(=O)NCc3ccc(F)cc3)c([O-])c(=O)n2C)o1.[K+]` [Raltegravir potassium, N-[(4-Fluorophenyl)methyl]-1,6-dihydro5-hydroxy-1-methyl-2-[1-methyl-1-[[(5-methyl-1,3,4-oxadiazol-2-yl)carbonyl]amino]ethyl]-6-oxo-4pyrimidinecarboxamide monopotassium salt]: the solubility entry (acetonitrile) is “very slightly soluble”; the solubility result (ethanol) is “very slightly soluble”; the solubility result (isopropanol) is listed as “insoluble”; the solubility result (methanol) is given as “slightly soluble”; the solubility entry (water) was “soluble”.
